According to US20130079322A1, “CRYSTALLINE OF CARBAPENEM DERIVATIVE OR ITS HYDRATE, PREPARATION METHODS AND USES THEREOF” (priority 2010, published 2013):
Converted amounts (≈) assume the structure as drawn.

Legend:
[1] = Stability assay at a high temperature of 60° C. (HPLC content and related substances); type: physicochemical
Method: Condition for the assay: sampled after placing for 5 days, 10 days at a high temperature of 60° C., and the results thus obtained were compared with those obtained at day 0 by measuring related substances and contents thereof. The samples were sealed with plastic bags coated with aluminium foils during the assay. Amorphous compound A (refers to the amorphous for short hereinafter): self-prepared. Preparation method: see the preparation of amorphous compound A in the above preparative examples. The purity is 96.66%, and the batch number is 110901. The crystalline form I of compound A (refers to the crystalline form I for short hereinafter): prepared by example 1 of the Specification. The batch number is 20100315-4. Content determination is performed by external standard method using the sample at day 0 as control according to the high performance liquid chromatography in Chinese Pharmacopoeia, 2010 edition, appendix VD. Determination of related substances is performed by area normalization method according to the high performance liquid chromatography in Chinese Pharmacopoeia, 2010 edition, appendix VD. Mobile phase: A: 0.02 M diammonium phosphate (pH=5.2 adjusted by phosphoric acid):acetonitrile=95:5. • B: 0.02 M diammonium phosphate (pH=5.2 adjusted by phosphoric acid):acetonitrile=30:70. Gradient condition: see Table 1 The experimental results obtained: see Table 2

Moraxelle catarrhalis = experiment: Antibacterial activity, standard agar double dilution method; type: cell-based; details: clinically isolated strains
Source text: (§1) Test strains: the following clinically isolated strains were provided by public organizations.
(§2) Gram-negative bacteria: ESBLs negative Escherichia coli, ESBLs positive Escherichia coli, Haemophilus influenzae, and Moraxelle catarrhalis.
(§3) Test compound: the crystalline form I of compound A
(§4) Experimental method: standard agar double dilution method was adopted.

[2] = tested on: Gram-positive and Gram-negative bacteria; experiment: Antibacterial activity against clinically isolated strains (overall conclusion); type: cell-based; details: against both Gram-positive and Gram-negative bacteria
Source text: as §1
Gram-positive bacteria: methicillin sensitive Staphylococcus aureus (MSSA), and penicillin sensitive Streptococcus pneumoniae;
as §2, §3, §4

[3] = 60° C., day 5 compared with day 0
[4] = 60° C., day 10 compared with day 0

Row | SMILES | Stability as compared with the amorphous of compound A ([1]; 60° C., 5 and 10 days) | Content decrease % [1, 3] | Related substance % increase open ring % [1, 3] | Related substance % increase total % [1, 3] | Content decrease % [1, 4] | Related substance % increase open ring % [1, 4] | Related substance % increase total % [1, 4] | MIC90 (Moraxelle catarrhalis) | Antibacterial activity [2] | Content % ([1]; 60° C., day 5, sample at day 0 as control) | Related substance % open ring % ([1]; 60° C., day 5, sealed) | Related substance % total % ([1]; 60° C., day 5, sealed) | Related substance % open ring % ([1]; day 0) | Related substance % total % ([1]; day 0)
1 | C[C@@H](O)[C@H]1C(=O)N2C(C(=O)O)=C(S[C@@H]3CN[C@H](C(=O)NCc4ccc(S(N)(=O)=O)cc4)C3)[C@H](C)[C@H]12 [The crystalline form I] | more stable | 3.73% | 0.646% | 0.841% | 3.95% | 0.984% | 1.167% | 8 ng/mL (≈ 0.0152 µM) | excellent antibacterial activity |  |  |  |  | 
2 | C[C@@H](O)[C@H]1C(=O)N2C(C(=O)O)=C(S[C@@H]3CN[C@H](C(=O)NCc4ccc(S(N)(=O)=O)cc4)C3)[C@H](C)[C@H]12 [The amorphous] |  | 26.84% | 2.852% | 11.38% |  |  |  |  |  | 73.16% | 3.328% | 20.675% | 0.476% | 9.295%
